{
  "source": "patent US20220308068A1",
  "about": "“BIOMARKER IN OSTEOPOROSIS INTERVENTION THERAPY BY BONE PEPTIDE, SCREENING METHOD AND USE THEREOF” (Institute of Food Science and Technology, Chinese Academy …, priority 2019, published 2022)",
  "key": {"[1]": {"tested_on": "ovariectomized osteoporosis rat model", "assay": "three-point bending test of left femurs", "type": "in vivo, SD rats", "settings": "left femur; treatment groups and ES group vs Model group", "experimental": "1, the construction of ovariectomized rats models: SD rats are kept in a clean environment under a controlled room temperature at 25±2° C. and alternates 12/12 light and dark every day, and the SD rats feed freely. After one week adaptive feeding, randomly select 8 female rats, anesthetize them with 1% (v/v) pentobarbital sodium (40 mg/kg BW), and remove a little fat near ovaries. The remaining 40 rats are ovariectomized after being anesthetized with pentobarbital sodium. The recovery situation is observed in a 4-week recovery period, and their weight changes are detected. These are prepared by the applicant in advance. (any research about metabolic fingerprint changes of ovariectomized osteoporotic rats after intervention with bone peptide have not been reported according to the existing literature). 2, animal grouping and samples collection: the 8 female rats with a little fat near ovaries removed are selected as a sham-operated group, the ovariectomized 40 rats are randomly divided into 5 groups with 8 rats in each group, and are named by a negative control group, a positive control group, a low-concentration treatment group, a medium-concentration treatment group and a high-concentration treatment group. […]"}, "[2]": {"tested_on": "ovariectomized osteoporosis rat model", "assay": "Micro-CT of right femurs", "type": "in vivo, SD rats", "settings": "vs Model group", "experimental": "1, the construction of ovariectomized rats models: SD rats are kept in a clean environment under a controlled room temperature at 25±2° C. and alternates 12/12 light and dark every day, and the SD rats feed freely. After one week adaptive feeding, randomly select 8 female rats, anesthetize them with 1% (v/v) pentobarbital sodium (40 mg/kg BW), and remove a little fat near ovaries. The remaining 40 rats are ovariectomized after being anesthetized with pentobarbital sodium. The recovery situation is observed in a 4-week recovery period, and their weight changes are detected. These are prepared by the applicant in advance. (any research about metabolic fingerprint changes of ovariectomized osteoporotic rats after intervention with bone peptide have not been reported according to the existing literature). 2, animal grouping and samples collection: the 8 female rats with a little fat near ovaries removed are selected as a sham-operated group, the ovariectomized 40 rats are randomly divided into 5 groups with 8 rats in each group, and are named by a negative control group, a positive control group, a low-concentration treatment group, a medium-concentration treatment group and a high-concentration treatment group. The rats are perfused by different solutions of bovine bone peptide (diluted by ultrapure water, and sterilized) with concentration of 100 mg/kg, 200 mg/kg, and 500 mg/kg according to the weights of the rats. The rats in the negative control group are perfused with equal volume of ultrapure sterile water (a perfusing volume is generally 1-2 mL/100 g BW), and the rats in the positive control group are perfused with 50 μg/kg of 17β-estradiol (ES). Observe weight changes of the rats and measure the weights every two weeks. After perfusing experiment, the rats are sacrificed in accordance with the animal welfare operating procedures, femurs and tibias on both sides are taken, and soft tissues such as muscle and fascia attached to bone tissues are removed. The right tibias are subjected to paraffin-embedded H&E staining treatment after fixing in a phosphate-formalin buffer for 24 hours for morphometric analysis of the tibias of the rats. Left femurs and right femurs is soaked with normal saline, washed repeatedly for 3 times, wrapped with medical gauzes (pre-soaked with normal saline) and tinfoil, and then stored in a −20° C. refrigerator for trabecular bone microstructure (micro-CT scanning) and mechanical strength tests of bone biomechanical indexes (three-point bending test). In the screening method of the biomarkers in the anti-osteoporosis activity of bone peptide, the specific implementation steps of determining biomechanical indexes of the right femurs of the rats by the Micro-CT method are as follows: determining femur microstructures by Micro Computed Tomography (Micro-CT, Inveon-type, SIEMENS, Germany) with scanning parameters: a span voltage of 80 kV, a scanning current of 500 μA, and a scanning thickness (resolution) of […] Region of interest (ROI) of femurs starts from 1 mm below a bone tissue growth-plate. Scan the layers downward and sequentially. Select the bone tissue with a thickness of 100 layers as cancellous ROI for three-dimensional reconstruction to obtain a visualized 3D image. The obtained scanning data are subjected to morphometric calculation of femur tissues using Inveon Research Workplace software (SIEMENS, Germany). […]"}},
  "data": [
    {"smiles": "C[C@]12CC[C@@H]3c4ccc(O)cc4CC[C@H]3[C@@H]1CC[C@@H]2O", "note": "[ES, 17β-estradiol]", "values": [
      {"measurement": "elastic load (Ed)", "setting": "[1]", "result": "on a rise trend"},
      {"measurement": "fracture load (Fd)", "setting": "[1]", "result": "on a rise trend"},
      {"measurement": "osteoporosis of the rats (three dimensional reconstruction of femur bone microstructures)", "setting": "[2]; after treatment", "result": "improved to a certain extent"},
      {"measurement": "bone volume fraction (BV/TV)", "setting": "[2]; right femur", "result": "on a rise trend"},
      {"measurement": "trabecular bone density (Tb.BMD)", "setting": "[2]; right femur", "result": "on a rise trend"},
      {"measurement": "trabecular bone number (Tb.N)", "setting": "[2]; right femur", "result": "on a rise trend"},
      {"measurement": "trabecular bone thickness (Tb.Th)", "setting": "[2]; right femur", "result": "on a rise trend"}
    ]}
  ]
}
